Values joined by “and” are separate entries in the source; they are usually repeats but may differ in a detail not shown here. Identical values can stand only once.
How the values were obtained:
[1] = system: anti-isostere antibody of ddATP; assay: Radioimmunological determination (RIA) of the specificity of the anti-isostere antibody of ddATP, tracer ddA-HS-K-125IY; set-up: species or system rabbit; conditions: concentration of non-tagged antigen which inhibits 50% of the antigen-antibody binding
From the text: The polyclonal antibodies were produced in the rabbit, according to standard methods.
The antibodies having an affinity for the ddNTP derivatives can be identified by immunological techniques either by means of immunoenzymatic determinations or by means of radioimmunological determinations (RIA).
The specificity of these antibodies was studied in relation to different analogues of ddATP.

[2] = human, in vivo
Procedure: Blood samples were collected from patients infected with HIV-1 and undergoing treatment comprising administration of ddI. The patients were under the supervision of Professor P. Dellamonica at the Archet Hospital in Nice. The blood samples were collected using cell preparation tubes (CPT) at the rate of two 4-ml tubes for each of the 4 patients participating in this study. Quantification of the ddI in the plasma was performed for each patient and expressed in ddI equivalents. Intracellular quantification of ddATP was performed after chromatography (on Sep Pak anionic cartridge) of the cellular lysates. For each fraction (500 μl), the cellular content of ddATP was determined directly and expressed in ddATP equivalents; quantification was then performed after dephosphorylation and expressed in ddA equivalents.

blood monocyte cells = assay: In vitro cell model: blood monocyte cells incubated with ddI, RIA of supernatant ddI and intracellular ddATP after Sep Pak anionic cartridge; assay type: in vitro ADME, human; conditions: for Intracellular content in ddATP eq. (pmoles/10^6) cells: fractions 32-37
Procedure: Separation by anionic chromatography of the different phosphorylated metabolites stemming from the cellular metabolism of the ddI (ddIMP, ddAMP, ddADP and ddATP) was performed on Sep Pak anionic cartridge by means of a stepwise gradient using different concentrations of KCl (6 ml KCl 50 mM, 10 ml KCl 100 mM and 6 ml KCl 250 mM).
A certain number of controls were performed on an in vitro cell model. After separation by density gradient on Ficoll, the blood monocyte cells were incubated with different concentrations of ddI in the RPMI (at the level of 5×10^5 cells per ml).
The immunoreactivity present in the supernatant was expressed in equivalents (eq.) ddI established in relation to a ddI reference curve, and illustrated in Table 2 below. The ddATP immunoreactivity corresponds to the sum of the immunoreactivities present in the fractions 32-37 stemming from the separation of the intracellular contents on Sep Pak anionic cartridge. The immunoreactivity was expressed in ddATP equivalents in relation to a ddATP reference curve, and is also illustrated in Table 2 below.
The nature of the immunoreactive material present in the culture supernatant and in the intracellular medium was controlled by chromatography on a Sep Pak anionic cartridge. and detected by radioimmunological quantitation. […] This is shown in attached FIG. 2.

IC50 [1] [µM]	SMILES	also measured
200	Nc1ccn(C2CSC(CO)O2)c(=O)n1 (centres unmarked) [3TC, 2′,3′-dideoxyo-3′-thiacytidine]	–
> 1000	Nc1ncnc2c1ncn2[C@@H]1O[C@H](COP(=O)(O)OP(=O)(O)O)[C@@H](O)[C@H]1O [ADP]	–
> 1000	Nc1ncnc2c1ncn2[C@@H]1O[C@H](COP(=O)(O)O)[C@@H](O)[C@H]1O [AMP]	–
36	Nc1ncnc2c1ncn2[C@@H]1O[C@H](COP(=O)(O)OP(=O)(O)OP(=O)(O)O)[C@@H](O)[C@H]1O [ATP]	–
9	Nc1ncnc2nc[nH]c12 [adenine]	–
2.4	Nc1ncnc2c1ncn2[C@@H]1O[C@H](CO)[C@@H](O)[C@H]1O [adenosine]	–
0.3	Nc1ncnc2c1ncn2C1CC(O)C(CO)O1 (centres unmarked) [dA]	–
0.0004	Nc1ncnc2c1ncn2[C@H]1CC[C@@H](CO)O1 [ddA, 2′,3′-dideoxyadenosine]	–
0.0011	Nc1ncnc2c1ncn2[C@H]1CC[C@@H](COP(=O)(O)OP(=O)(O)OP(=O)(O)O)O1 [ddATP, 2′,3′-didesoxyadenosine-5′-triphosphate]	–
> 1000	Nc1ccn([C@H]2CC[C@@H](CO)O2)c(=O)n1 [ddC]	–
0.002	O=c1[nH]cnc2c1ncn2[C@H]1CC[C@@H](CO)O1 [ddI]	plasma concentrations [2]: 2-6×10^−6; intracellular immunoreactive content eluted in the elution volume of ddATP (yield) (blood monocyte cells; Sep Pak anionic cartridge): 92%; share of supernatant immunoreactivity in fractions 1 to 5 (elution volume of ddI) (blood monocyte cells; culture supernatants n=4, Sep Pak anionic cartridge): 100%; Concentration of ddI of the supernatant in ddI eq. (blood monocyte cells; incubated ddI 1 × 10^−4 M): 130 µM and 150 µM; Concentration of ddI of the supernatant in ddI eq. (M) (blood monocyte cells; incubated ddI 1 × 10^−5 M): 3.8 ± 0.34 × 10^−5 (n = 2) M; Intracellular content in ddATP eq. (pmoles/10^6) cells (blood monocyte cells; incubated ddI 1 × 10^−5 M): 10.4 ± 0.6 (n = 2) pmoles/10^6 cells; Concentration of ddI of the supernatant in ddI eq. (M) (blood monocyte cells; incubated ddI 1 × 10^−7 M): 2.74 × 10^−7 (n = 1) M; Intracellular content in ddATP eq. (pmoles/10^6) cells (blood monocyte cells; incubated ddI 1 × 10^−7 M): 0.15 (n = 1) pmoles/10^6 cells; Concentration of ddI of the supernatant in ddI eq. (M) (blood monocyte cells; incubated ddI 5 × 10^−6 M): 5.74 × 10^−6 (n = 1) M; Intracellular content in ddATP eq. (pmoles/10^6) cells (blood monocyte cells; incubated ddI 5 × 10^−6 M): 1.8 (n = 1) pmoles/10^6 cells; ddI in the cells (blood monocyte cells; no immunoreactive material at the retention time of ddI): not detectable
5.2e-05	Nc1ncnc2c1ncn2C1CCC(COC(=O)CC(O)(CC(=O)O)C(=O)O)O1 (centres unmarked) [isostere of ddATP, 5′-O-(3,4-dicarboxy-3-hydroxy)butanoate-2′,3′-didesoxyadenosine]	–

From patent US8415095B2, “Use of nucleoside derivatives comprising a citrate group for the production of antibodies having an affinity for triphosphorylated nucleosides” (Centre National de la Recherche-Scientifique-CNRS, priority 2003, dated 2013)
